The source of these data is EPA's ToxRefDB 2.

Data set [1] relates to dog. The settings on record: Chronic toxicity; beagle; Oral; Feed; dose end: 12 month; group: systemic; systemic / clinical chemistry / alkaline phosphatase (alp/alk) / alkaline phosphatase (alp/alk) + systemic / organ weight / liver / absolute….
The subject of data set [2] is mouse. As to conditions: Subchronic oral toxicity in rodents, cd1, Feed, dose end: 13 week, group: systemic, systemic / organ weight / liver / absolute + systemic / organ weight / liver / relative to body weight + systemic / pathology microscopic / ….
Data set [3] has as its system mouse. As to conditions: Carcinogenicity, cd1, Oral, Feed, dose end: 80 week, group: systemic.
For data set [4], the system named is rat. As to conditions: Combined chronic toxicity/carcinogenicity, fischer, Oral, Feed, dose end: 24 month, group: systemic.
The test system of data set [5] is rat. As to conditions: Subchronic oral toxicity in rodents, fischer, Feed, dose end: 90 day, group: systemic.
In data set [6] the test system is dog. The settings on record: Subchronic oral toxicity in nonrodent, beagle, Capsule, dose end: 90 day, group: systemic, systemic / clinical chemistry / alanine aminotransferase (alt/sgpt) / alanine aminotransferase (alt/sgpt) + systemic / clinical chemistry / ….
Data set [7] concerns rat. As to conditions: Combined chronic toxicity/carcinogenicity, wistar, Oral, Water, dose end: 104 week, group: systemic.
Data set [8] concerns mouse. As to conditions: Carcinogenicity, cd1, Oral, Water, dose end: 104 week, group: systemic.
In data set [9] the test system is rat. As to conditions: Prenatal developmental toxicity study, wistar, Oral, Gavage/Intubation, dose end: 17 GD.
The subject of data set [10] is rabbit. As to conditions: Prenatal developmental toxicity study, new zealand white, Oral, Gavage/Intubation, dose end: 20 GD.
In data set [11] the test system is dog. The settings on record: Chronic toxicity, beagle, Oral, Capsule, dose end: 52 week, group: systemic.
In data set [12] the test system is rat. As to conditions: Subchronic oral toxicity in rodents, other, Feed, dose end: 90 day, group: systemic, systemic / pathology gross / kidney / enlarged + systemic / pathology gross / liver / enlarged + systemic / urinalysis / glucose / glucose….
Data set [13] deals with dog. The settings on record: Combined chronic toxicity/carcinogenicity; beagle; Oral; Feed; dose end: 104 week; group: systemic; systemic / clinical chemistry / alanine aminotransferase (alt/sgpt) / alanine aminotransferase (alt/sgpt) + systemic / clinical chemistry / ….
Data set [14] deals with rabbit. As to conditions: Prenatal developmental toxicity study, new zealand white, Oral, Gavage/Intubation, dose end: 19 GD.
The mark [15] stands for this setting: systemic / in life observation / body weight / body weight + systemic / in life observation / body weight / body weight gain + systemic / ….
Where [16] appears, read: systemic / in life observation / body weight / body weight gain + systemic / organ weight / kidney / relative to body weight.
Where [17] appears, read: systemic / in life observation / body weight / body weight gain + systemic / organ weight / kidney / relative to body weight + systemic / ….
Setting [18] is: systemic / in life observation / body weight / body weight gain + systemic / pathology microscopic / liver / hypertrophy + systemic / in ….
Setting [19] is: systemic / in life observation / body weight / body weight gain + systemic / pathology microscopic / liver / hypertrophy + systemic / organ ….
Where [20] appears, read: systemic / clinical chemistry / cholesterol / cholesterol + systemic / clinical chemistry / triglycerides / triglycerides + systemic / ….
[21] abbreviates: systemic / in life observation / food consumption / food consumption + systemic / in life observation / water consumption / water ….
The mark [22] stands for this setting: systemic / pathology microscopic / liver / sarcoma + systemic / pathology gross / full gross necropsy / sarcoma.
[23] abbreviates: group: developmental, developmental / developmental malformation / bone / unossified + developmental / developmental malformation / other / other + systemic / in ….
Where [24] appears, read: group: maternal, systemic / in life observation / body weight / body weight gain + systemic / in life observation / food consumption / food consumption + ….
The mark [25] stands for this setting: group: developmental, developmental / developmental malformation / bone / enlarge suture + developmental / developmental malformation / bone / incomplete ….
[26] abbreviates: systemic / clinical chemistry / alanine aminotransferase (alt/sgpt) / alanine aminotransferase (alt/sgpt) + systemic / pathology microscopic….
Where [27] appears, read: systemic / clinical chemistry / aspartate aminotransferase (ast/sgot) / aspartate aminotransferase (ast/sgot) + systemic / hematology / ….
[28] abbreviates: group: developmental, developmental / developmental malformation / bone / supernumerary + systemic / in life observation / body weight / fetal weight.
The mark [29] stands for this setting: group: maternal, systemic / in life observation / body weight / body weight gain.

The structures appear in SMILES notation. A value given as a limit tells only on which side of the number the result lay.

As for `Fc1ccc(Oc2ccnc3cc(Cl)cc(Cl)c23)cc1` [Quinoxyfen], the LEL in the data set with dog [1] was 200 mg/kg/day; in the data set with mouse [2], 500 mg/kg/day; with mouse [3] (setting [15]) it was 250 mg/kg/day; with rat [4] (setting [17]), 80 mg/kg/day; with rat [5] (setting [19]) it was 100 mg/kg/day. Also, the LOAEL (usually the lowest tested level that showed an adverse finding) in the data set with dog [1] worked out at 200 mg/kg/day; in the data set with mouse [2], 500 mg/kg/day; in the data set with mouse [3] (systemic / in life observation / body weight / body weight + systemic / in life observation / body weight / body weight gain), 250 mg/kg/day; in the data set with rat [4] (setting [17]) it was 80 mg/kg/day; with rat [5] (setting [19]) it was 100 mg/kg/day. Further, the NEL in the data set with dog [1] came to 20 mg/kg/day; in the data set with mouse [2], 100 mg/kg/day; with mouse [3] (setting [15]) it was 80 mg/kg/day; in the data set with rat [4] (setting [16]), 20 mg/kg/day; in the data set with rat [5] (setting [18]), 10 mg/kg/day. For the same compound, the NOAEL (commonly the highest dose or exposure tested at which no adverse effect was seen) in the data set on dog [1] was determined as 20 mg/kg/day; in the data set with mouse [2] it was 100 mg/kg/day; in the data set with mouse [3] (setting [15]), 80 mg/kg/day; in the data set on rat [4] (setting [16]) it was 20 mg/kg/day; in the data set on rat [5] (setting [18]), 10 mg/kg/day.

As to `CNC(=S)[S-].[Na+]` [Metam-sodium], the LEL in the data set on dog [6] is 1 mg/kg/day; in the data set on rat [7] (systemic / in life observation / body weight / body weight gain) it was 6.2 mg/kg/day; in the data set with mouse [8] (setting [22]) it was 1.6 mg/kg/day; in the data set with rat [9] (setting [23]), 20 mg/kg/day; in the data set with rat [9] (setting [24]) it was 20 mg/kg/day; in the data set with rabbit [10] (setting [25]) it was 20 mg/kg/day. Also, the LEL amounted to 20 mg/kg/day in the data set with rabbit [10] (setting [24]) and 0.05 mg/kg/day with dog [11] (setting [27]). The LOAEL was found to be 1 mg/kg/day in the data set on dog [6]; 12 mg/kg/day in the data set with rat [7] (setting [20]); 6.5 mg/kg/day with mouse [8] (setting [21]); 20 mg/kg/day in the data set on rat [9] (group: developmental, developmental / developmental malformation / bone / unossified + developmental / developmental malformation / other / other); 20 mg/kg/day in the data set with rat [9] (group: maternal, systemic / in life observation / body weight / body weight gain + systemic / in life observation / food consumption / food consumption); 20 mg/kg/day in the data set on rabbit [10] (setting [25]). Further, the LOAEL turned out to be 20 mg/kg/day in the data set with rabbit [10] (setting [24]) and 1 mg/kg/day with dog [11] (setting [26]). In addition, the NEL in the data set on dog [6] was under 1 mg/kg/day; with rat [7] (systemic / in life observation / body weight / body weight gain + systemic / clinical chemistry / cholesterol / cholesterol + systemic / …) it was 2.3 mg/kg/day; with mouse [8] (setting [22]), under 1.6 mg/kg/day; with rat [9] (setting [23]), 5 mg/kg/day; in the data set with rat [9] (setting [24]), 5 mg/kg/day; in the data set with rabbit [10] (setting [25]) it was 5 mg/kg/day. Moreover, the NEL is 5 mg/kg/day in the data set with rabbit [10] (setting [24]) and under 0.05 mg/kg/day in the data set on dog [11] (setting [27]). In addition, the no-observed-adverse-effect level (NOAEL) in the data set with dog [6] was under 1 mg/kg/day; with rat [7] (setting [20]), 3.9 mg/kg/day; with mouse [8] (setting [21]) it was 1.6 mg/kg/day; in the data set on rat [9] (setting [23]), 5 mg/kg/day; with rat [9] (setting [24]), 5 mg/kg/day; with rabbit [10] (setting [25]) it was 5 mg/kg/day. The NOAEL in the data set on rabbit [10] (setting [24]) was determined as 5 mg/kg/day; in the data set on dog [11] (setting [26]), 0.1 mg/kg/day.

With `COc1cc(Cl)c(OC)cc1Cl` [Chloroneb], in the data set on rat [12], the LEL is 375 mg/kg/day, the LOAEL amounted to 375 mg/kg/day, the NEL was found to be 25 mg/kg/day and the NOAEL is 25 mg/kg/day. Besides, in the data set with dog [13], the LEL came out at 62.5 mg/kg/day, the LOAEL turned out to be 62.5 mg/kg/day, the NEL was 12.5 mg/kg/day and the no-observed-adverse-effect level (NOAEL) was determined as 12.5 mg/kg/day. Also, in the data set on rabbit [14] (setting [28]), the LEL stood at 1000 mg/kg/day, the LOAEL was 1000 mg/kg/day, the NEL worked out at 100 mg/kg/day and the NOAEL stood at 100 mg/kg/day. In the data set on rabbit [14] (setting [29]), the LEL is 1000 mg/kg/day, the LOAEL was determined as 1000 mg/kg/day, the NEL is 100 mg/kg/day and the NOAEL is 100 mg/kg/day.
